Experimental data taken from the supplement of paper PMC11061612.

Experiments:
Assay in all cases: combination Emax (second highest fraction inhibited in the dose matrix, 72 h); higher = more inhibition; extreme values may be limits of the assay
[1] = test system: BT-474 (Breast Carcinoma)
Method in brief: (§1)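 Cell lines in DMEM/F12 or RPMI with 10% FBS were plated in 1536-well plates, held 24 hours at 37°C, 5% CO2, then given two-drug dose matrices for 72 hours (DMSO typically 0.2%). Viability was read by CellTiter-Glo 2.0 luminescence and scaled as inhibition from 0 (vehicle wells) to 1 (blank wells). Combination Emax is the second-highest inhibition in the matrix; Bliss excess is observed combination effect minus expected EA + EB − EA·EB, EA and EB being single-agent effects.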

[2] = test system: C2BBe1 (Colorectal Carcinoma)
Method in brief: as §1

[3] = test system: RPMI-8402 (T-Lymphoblastic Leukemia)
Method in brief: as §1

[4] = test system: NCI-H2009 (Lung Adenocarcinoma)
Method in brief: as §1

[5] = test system: NTERA-2-cl-D1 (Other Solid Carcinomas)
Method in brief: as §1

[6] = test system: SK-N-DZ (Neuroblastoma)
Method in brief: as §1

[7] = test system: NCI-H2023 (Non-Small Cell Lung Carcinoma)
Method in brief: as §1

[8] = test system: OCI-M1 (Acute Myeloid Leukemia)
Method in brief: as §1

[9] = test system: NCI-H835 (Other Solid Carcinomas)
Method in brief: as §1

[10] = test system: NCI-H2452 (Mesothelioma)
Method in brief: as §1

[11] = test system: JURL-MK1 (Chronic Myelogenous Leukemia)
Method in brief: as §1

[12] = test system: OVKATE (Ovarian Carcinoma)
Method in brief: as §1

[13] = test system: SNU-1 (Gastric Carcinoma)
Method in brief: as §1

[14] = test system: SBC-5 (Small Cell Lung Carcinoma)
Method in brief: as §1

[15] = test system: COR-L105 (Lung Adenocarcinoma)
Method in brief: as §1

[16] = test system: RS4-11 (B-Lymphoblastic Leukemia)
Method in brief: as §1

[17] = test system: A375 (Melanoma)
Method in brief: as §1

[18] = test system: TOV-21G (Ovarian Carcinoma)
Method in brief: as §1

[19] = test system: SCC90 (Head and Neck Carcinoma)
Method in brief: as §1

[20] = test system: NCI-H1975 (Lung Adenocarcinoma)
Method in brief: as §1

SMILES | combination Emax [1] | combination Emax [2] | combination Emax [3] | combination Emax [4] | combination Emax [5] | combination Emax [6] | combination Emax [7] | combination Emax [8] | combination Emax [9] | combination Emax [10] | combination Emax [11] | combination Emax [12] | combination Emax [13] | combination Emax [14] | combination Emax [15] | combination Emax [16] | combination Emax [17] | combination Emax [18] | combination Emax [19] | combination Emax [20]
COc1cccc(OCCCN)c1-c1cc(Nc2cnc(C#N)cn2)n[nH]1 [Prexasertib] + C[C@@H]1COCCN1C2=NC(=NC(=C2)C3(CC3)[S@](=N)(=O)C)C4=C5C=CNC5=NC=C4 [AZD6738] (first compound max 1 µM, 7x7, partner max 10 µM) | 0.133 | 0.556 | 1 | 0.522 | 0.596 | 1 | 0.81 | 0.956 | 0.372 | 0.672 | 1 | 0.337 | 0.888 | 0.938 | 0.473 | 1 | 0.853 | 0.591 | 0.679 | 0.426
NC1(C(=O)N[C@@H](CCO)c2ccc(Cl)cc2)CCN(c2ncnc3[nH]ccc23)CC1 [Capivasertib] + CC(=O)c1c(C)c2cnc(Nc3ccc(N4CCNCC4)cn3)nc2n(C2CCCC2)c1=O [Palbociclib] (first compound max 10 µM, 7x7, partner max 10 µM) | 0.332 | 0.314 | 0.947 | 0.242 | 0.294 | 0.618 | 0.402 | 0.61 | 0.426 | 0.474 | 1 | 0.265 | 0.621 | 0.353 | 0.362 | 0.605 | 0.368 | 0.754 | 0.965 | 0.638
COc1cccc(OCCCN)c1-c1cc(Nc2cnc(C#N)cn2)n[nH]1 [Prexasertib] + C=CCn1c(=O)c2cnc(Nc3ccc(N4CCN(C)CC4)cc3)nc2n1-c1cccc(C(C)(C)O)n1 [AZD1775] (first compound max 1 µM, partner max 1 µM) | 0.234 | 0.613 | 1 | 0.849 | 0.916 | 1 | 0.853 | 0.969 | 0.684 | 0.832 | 1 | 0.371 | 0.916 | 0.94 | 0.444 | 1 | 0.952 | 0.618 | 0.94 | 0.516
NC1(C(=O)N[C@@H](CCO)c2ccc(Cl)cc2)CCN(c2ncnc3[nH]ccc23)CC1 [Capivasertib] + C[C@@H]1COCCN1C2=NC(=NC(=C2)C3(CC3)[S@](=N)(=O)C)C4=C5C=CNC5=NC=C4 [AZD6738] (first compound max 10 µM, 7x7, partner max 10 µM) | 0.406 | 0.445 | 0.997 | 0.453 | 0.477 | 0.983 | 0.655 | 0.985 | 0.456 | 0.72 | 1 | 0.265 | 0.718 | 0.7 | 0.501 | 0.967 | 0.723 | 0.851 | 0.804 | 0.669
COc1nnc2ccc(N3CCC(c4ccc(OCCN5CCN(C)C(=O)[C@H]5C)cc4)CC3)nn12 [AZD5153] + C[C@@H]1COCCN1C2=NC(=NC(=C2)C3(CC3)[S@](=N)(=O)C)C4=C5C=CNC5=NC=C4 [AZD6738] (first compound max 1 µM, 7x7, partner max 10 µM) | 0.483 | 0.579 | 1 | 0.645 | 0.832 | 0.979 | 0.7 | 1 | 0.727 | 0.574 | 0.998 | 0.324 | 0.823 | 0.83 | 0.477 | 0.944 | 0.774 | 0.891 | 0.416 | 0.737
NC1(C(=O)N[C@@H](CCO)c2ccc(Cl)cc2)CCN(c2ncnc3[nH]ccc23)CC1 [Capivasertib] + CCN(CCO)CCCOc1ccc2c(Nc3cc(CC(=O)Nc4cccc(F)c4)[nH]n3)ncnc2c1 [AZD2811] (first compound max 10 µM, 7x7, partner max 1 µM) | 0.348 | 0.301 | 0.939 | 0.386 | 0.481 | 0.619 | 0.412 | 0.619 | 0.535 | 0.403 | 0.596 | 0.309 | 0.404 | 0.383 | 0.377 | 0.96 | 0.421 | 0.794 | 0.867 | 0.611
COc1cccc(OCCCN)c1-c1cc(Nc2cnc(C#N)cn2)n[nH]1 [Prexasertib] + O=C(c1cc(Cc2n[nH]c(=O)c3ccccc23)ccc1F)N1CCN(C(=O)C2CC2)CC1 [Olaparib] (first compound max 1 µM, 7x7, partner max 10 µM) | 0.24 | 0.414 | 1 | 0.574 | 0.742 | 0.97 | 0.801 | 0.981 | 0.256 | 0.735 | 1 | 0.371 | 0.777 | 0.914 | 0.401 | 1 | 0.815 | 0.579 | 0.679 | 0.299
NC1(C(=O)N[C@@H](CCO)c2ccc(Cl)cc2)CCN(c2ncnc3[nH]ccc23)CC1 [Capivasertib] + Cn1cnc2c(F)c(Nc3ccc(Br)cc3Cl)c(C(=O)NOCCO)cc21 [Selumetinib] (first compound max 10 µM, 7x7, partner max 10 µM) | 0.39 | 0.569 | 0.633 | 0.584 | 0.321 | 0.405 | 0.369 | 0.926 | 0.41 | 0.344 | 1 | 0.385 | 0.574 | 0.627 | 0.492 | 0.468 | 0.832 | 0.876 | 0.992 | 0.829
COc1nnc2ccc(N3CCC(c4ccc(OCCN5CCN(C)C(=O)[C@H]5C)cc4)CC3)nn12 [AZD5153] + Cn1cnc2c(F)c(Nc3ccc(Br)cc3Cl)c(C(=O)NOCCO)cc21 [Selumetinib] (first compound max 1 µM, 7x7, partner max 10 µM) | 0.385 | 0.701 | 0.774 | 0.716 | 0.712 | 0.703 | 0.316 | 1 | 0.446 | 0.446 | 1 | 0.26 | 0.71 | 0.662 | 0.621 | 0.593 | 0.868 | 0.775 | 0.916 | 0.72
CC(=O)c1c(C)c2cnc(Nc3ccc(N4CCNCC4)cn3)nc2n(C2CCCC2)c1=O [Palbociclib] + Cc1c2c(nn1C)CSCc1cc(n(C)n1)CSc1cc(c3ccccc3c1)OCCCc1c(C(=O)O)n(C)c3c-2c(Cl)ccc13 [AZD5991] (first compound max 10 µM, 7x7, partner max 1 µM) | 0.497 | 0.229 | 0.974 | 0.179 | 0.509 | 0.55 | 0.234 | 0.457 | 0.416 | 0.336 | 1 | 0.208 | 0.805 | 0.443 | 0.207 | 0.841 | 0.356 | 0.488 | 0.965 | 0.321
CS(=O)(=O)CCNCc1ccc(-c2ccc3ncnc(Nc4ccc(OCc5cccc(F)c5)c(Cl)c4)c3c2)o1 [Lapatinib] + C[C@@H](Oc1cc(-c2cnn(C3CCNCC3)c2)cnc1N)c1c(Cl)ccc(F)c1Cl [Crizotinib] (first compound max 10 µM, 7x7, partner max 10 µM) | 0.905 | 0.745 | 0.995 | 0.732 | 0.957 | 0.899 | 0.687 | 0.996 | 0.459 | 0.804 | 1 | 0.391 | 0.857 | 0.832 | 0.815 | 0.883 | 0.86 | 0.953 | 0.946 | 0.631
COc1cccc(OCCCN)c1-c1cc(Nc2cnc(C#N)cn2)n[nH]1 [Prexasertib] + Cc1cc2ncnn2cc1Nc1ncc2c(n1)n(C1CCOCC1)c(=O)n2C [AZD7648] (first compound max 1 µM, 7x7, partner max 10 µM) | 0.222 | 0.625 | 1 | 0.45 | 0.345 | 1 | 0.801 | 0.948 | 0.36 | 0.714 | 1 | 0.294 | 0.84 | 0.901 | 0.444 | 1 | 0.877 | 0.617 | 0.755 | 0.409
NC1(C(=O)N[C@@H](CCO)c2ccc(Cl)cc2)CCN(c2ncnc3[nH]ccc23)CC1 [Capivasertib] + COc1nnc2ccc(N3CCC(c4ccc(OCCN5CCN(C)C(=O)[C@H]5C)cc4)CC3)nn12 [AZD5153] (first compound max 10 µM, 7x7, partner max 1 µM) | 0.416 | 0.405 | 0.991 | 0.498 | 0.564 | 0.646 | 0.362 | 1 | 0.944 | 0.456 | 0.993 | 0.284 | 0.652 | 0.563 | 0.381 | 0.867 | 0.469 | 0.892 | 0.986 | 0.652
